Results: patent US20080194653A1, “Therapeutic Agent For Solid Tumor” (KYOWA HAKKO KOGYO CO., LTD., priority 2005, published 2008)

Columns and labels:
[1] = system: human colon cancer HCT 116 cells; test: Cell growth inhibition test against colon cancer cells (XTT); assay type: cell-based; conditions: read-out: GI50 value (concentration of 50% growth inhibition), 72 hours
Protocol: (§1) As cancer cell lines, human lung cancer A549 cells (ATCC No. CCL-185), human ovarian cancer SK-OV-3 cells (ATCC No. HTB-77), and human colon cancer HCT 116 cells (ATCC No. CCL-247) were used. For the culture of A549 cells, Nutrient Mixture F-12K medium (Invitrogen, catalog No. 21127-022) containing 10% fetal bovine serum (Invitrogen, catalog No. 10099-141), 100 units/mL penicillin (Invitrogen, catalog No. 15140-122), and 100 μg/mL streptomycin (Invitrogen, catalog No. 15140-122) was used. For the culture of SK-OV-3 cells and HCT 116 cells, McCoy's 5A medium (Invitrogen, catalog No. 16600-082) containing 10% fetal bovine serum (Invitrogen, catalog No. 10099-141), 100 units/mL penicillin (Invitrogen, catalog No. 15140-122), and 100 μg/mL streptomycin (Invitrogen, catalog No. 15140-122) was used. The cells were cultured at 37° C. in a 5% carbon dioxide atmosphere.
(§2) A549 cells (1000 cells/well), SK-OV-3 cells (2000 cells/well), or HCT 116 cells (1000 cells/well) were seeded in each well of 96-well plates (Nunc, catalog No. 167008), and cultured overnight. Test compounds diluted stepwise were added, and the cells were further cultured for 72 hours (final volume: 100 μL/well). Fifty μL XTT labeling mixture of Cell Proliferation Kit II (XTT) (Roche Diagnostics, catalog No. 1465015) was added to each well, and the plates were incubated at 37° C. After 1 to 3 hours, absorbance at 490 nm (reference wavelength: 655 nm) was measured with a plate reader (Molecular Device, SpectraMax 340PC^384). Growth ratios of the cells in the wells treated with the test compounds were calculated based on the growth ratio of the cells in the control well treated with solvent (dimethyl sulfoxide (DMSO)) for 72 hours, which was defined as 100%.

[2] = system: human lung cancer A549 cells; test: Cell growth inhibition test against lung cancer cells (XTT); assay type: cell-based; conditions: read-out: GI50 value (concentration of 50% growth inhibition), 72 hours
Protocol: as §1, §2

[3] = system: human ovarian cancer SK-OV-3 cells; test: Cell growth inhibition test against ovarian cancer cells (XTT); assay type: cell-based; conditions: read-out: GI50 value (concentration of 50% growth inhibition), 72 hours
Protocol: as §1, §2

[4] = system: human pancreatic cancer MIA PaCa-2 cells; test: Cell growth inhibition test against pancreatic cancer cells (XTT); assay type: cell-based; conditions: read-out: GI50 value (concentration of 50% growth inhibition)
Protocol: as §2
(§3) As cancer cell lines, human pancreatic cancer MIA PaCa-2 cells (JCRB No. 0070), human cervical cancer HeLa cells (ATCC No. CCL-2), human breast cancer MDA-MB-468 cells (ATCC No. HTB-132), human prostate cancer DU 145 cells (ATCC No. HTB-81), human skin cancer SK-MEL-28 cells (ATCC No. HTB-72), human head and neck cancer KB cells (JCRB No. 9027), human renal cancer 786-0 cells (ATCC No. CRL-1932), and human liver cancer Hep G2 cells (ATCC No. HB-8065) were used. The cells were cultured at 37° C. in a 5% carbon dioxide atmosphere (except for the human breast cancer MDA-MB-468 cells, which were cultured under the condition at 37° C.) by using the mediums mentioned below, respectively.
(§4) In the same manner as that in Test Example 1, the cells were seeded (500 to 4000 cells/well, respectively) in each well of 96-well plates (Nunc, catalog No. 167008), and growth ratios of the cells treated with test compounds were calculated. The measurement of absorbance was performed at 1.5 to 3 hours after the addition of the XTT labeling mixture.

[5] = system: human cervical cancer HeLa cells; test: Cell growth inhibition test against cervical cancer cells (XTT); assay type: cell-based; conditions: read-out: GI50 value (concentration of 50% growth inhibition)
Protocol: as §2, §3, §4

[6] = system: human breast cancer MDA-MB-468 cells; test: Cell growth inhibition test against breast cancer cells (XTT); assay type: cell-based; conditions: read-out: GI50 value (concentration of 50% growth inhibition)
Protocol: as §2, §3, §4

[7] = system: human prostate cancer DU 145 cells; test: Cell growth inhibition test against prostate cancer cells (XTT); assay type: cell-based; conditions: read-out: GI50 value (concentration of 50% growth inhibition)
Protocol: as §2, §3, §4

[8] = system: human skin cancer SK-MEL-28 cells; test: Cell growth inhibition test against skin cancer cells (XTT); assay type: cell-based; conditions: read-out: GI50 value (concentration of 50% growth inhibition)
Protocol: as §2, §3, §4

[9] = system: human head and neck cancer KB cells; test: Cell growth inhibition test against head and neck cancer cells (XTT); assay type: cell-based; conditions: read-out: GI50 value (concentration of 50% growth inhibition)
Protocol: as §2, §3, §4

[10] = system: human renal cancer 786-0 cells; test: Cell growth inhibition test against renal cancer cells (XTT); assay type: cell-based; conditions: read-out: GI50 value (concentration of 50% growth inhibition)
Protocol: as §2, §3, §4

[11] = system: human liver cancer Hep G2 cells; test: Cell growth inhibition test against liver cancer cells (XTT); assay type: cell-based; conditions: HepG2, read-out: GI50 value (concentration of 50% growth inhibition)
Protocol: as §2, §3, §4

[12] = target: T1, recombinant human Eg5 motor domain protein (Homo sapiens, UniProt P52732); test: Eg5 enzyme inhibition test (ATPase activity); assay type: biochemical; conditions: for IC50: 30° C., 30 minutes, absorbance at 360 nm, read-out: Inhibition ratios (IC50) on the ATPase activity of Eg5
T1 construct: A plasmid expressing the motor domain of human Eg5 was constructed; made in house; host or cells: Escherichia coli BL21 (DE3)
T1 sequence (P52732 18-359 limits assumed): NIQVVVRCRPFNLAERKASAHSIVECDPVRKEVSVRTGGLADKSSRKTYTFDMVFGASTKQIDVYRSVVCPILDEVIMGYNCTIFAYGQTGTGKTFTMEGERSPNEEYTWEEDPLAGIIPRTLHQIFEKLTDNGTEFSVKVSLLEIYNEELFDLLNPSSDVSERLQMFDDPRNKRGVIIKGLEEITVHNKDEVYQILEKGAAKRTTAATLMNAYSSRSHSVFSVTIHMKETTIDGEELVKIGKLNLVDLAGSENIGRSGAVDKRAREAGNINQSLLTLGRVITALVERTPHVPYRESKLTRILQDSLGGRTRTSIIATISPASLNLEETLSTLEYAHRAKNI
Protocol: A recombinant human Eg5 motor domain protein was prepared by referring to the literature [Biochemistry, Vol. 35, p. […] A plasmid expressing the motor domain of human Eg5 was constructed, and transformed into Escherichia coli BL21 (DE3). The transformant was cultured at 25° C., and when the OD600 reached 0.74, isopropyl-β-D-thiogalactoside was added at a final concentration of 0.5 mmol/L. The transformant was further cultured for 4 hours, and then the culture medium was centrifuged to collect the cells. The cells were suspended in a buffer and ultrasonicated, and then the sonicated solution was centrifuged to recover the supernatant. The supernatant was purified by cation exchange column chromatography to obtain a partially purified sample. Furthermore, the partially purified sample was purified by gel filtration column chromatography to obtain a finally purified sample.
Measurement of the ATPase activity of Eg5 was carried out by referring to the literatures [EMBO Journal, Vol. 13, p. […] Solution A was dispensed into each well of a 96-well plate as 45 μL portions. Solution B was used to serially dilute a test compound. The diluted test compound solutions in a volume of 30 μL were mixed with Solution A added beforehand in each well of the 96-well plate to start the enzymatic reaction. The enzymatic reaction was performed at 30° C. for 30 minutes. […] The relative activity was calculated to calculate IC50 value.

| Compound | GI50 [1] | GI50 [2] | GI50 [3] | GI50 [4] | GI50 [5] | GI50 [6] | GI50 [7] | GI50 [8] | GI50 [9] | GI50 [10] | GI50 [11] | Inhibition of the ATPase activity of Eg5 (in words) [12] | IC50 [12] | melting point |
| --- | --- | --- | --- | --- | --- | --- | --- | --- | --- | --- | --- | --- | --- | --- |
| CC(C)(C)C(=O)NC1=NN(C(=O)C(C)(C)C)C(CCNS(C)(=O)=O)(c2ccccc2)S1 (single isomer, unassigned; (-)) [Compound a, (−)-N-[4-(2,2-Dimethylpropionyl)-5-(2-methanesulfonylaminoethyl)-5-phenyl-4,5-dihydro-1,3,4-thiadiazol-2-yl]-2,2-dimethylpropanamide] | < 0.1 µM | < 10 µM | < 10 µM | < 10 µM | < 10 µM | < 10 µM | < 10 µM | < 10 µM | < 10 µM | < 10 µM | < 10 µM | inhibited the ATPase activity of Eg5 in a concentration-dependent manner | < 0.1 µM | 204 to 206 °C |
| CN(C)CCCS(=O)(=O)NCC1(c2ccccc2)SC(NC(=O)C(C)(C)C)=NN1C(=O)C(C)(C)C (single isomer, unassigned; (-)) [Compound n, (−)-N-[5-(3-Dimethylaminopropanesulfonylaminomethyl)-4-(2,2-dimethylpropionyl)-5-phenyl-4,5-dihydro-1,3,4-thiadiazol-2-yl]-2,2-dimethyl-propanamide] | < 0.1 µM | < 10 µM | < 10 µM | < 10 µM | < 10 µM | < 10 µM | < 10 µM | < 10 µM | < 10 µM | < 10 µM | < 10 µM | – | – | 92 to 95 °C |
| CCC(=O)N1N=C(N2CCCC2=O)SC1(CCNS(C)(=O)=O)c1ccccc1 (single isomer, unassigned; (-)) [Compound e, (−)-N-{2-[5-(2-Oxopyrrolidin-1-yl)-2-phenyl-3-propionyl-2,3-dihydro-1,3,4-thiadiazol-2-yl]ethyl}methanesulfonamide] | < 0.1 µM | < 10 µM | < 10 µM | < 10 µM | < 10 µM | < 10 µM | < 10 µM | < 10 µM | < 10 µM | < 10 µM | < 10 µM | inhibited the ATPase activity of Eg5 in a concentration-dependent manner | < 0.1 µM | 188 to 191 °C |
| CC(C)(C)C(=O)NC1=NN(C(=O)C(C)(C)C)C(CCCC(=O)NCCO)(c2ccccc2)S1 (single isomer, unassigned) [Compound o, 4-[3-(2,2-Dimethylpropionyl)-5-(2,2-dimethylpropionylamino)-2-phenyl-2,3-dihydro-1,3,4-thiadiazol-2-yl]-N-(2-hydroxyethyl)butanamide] | < 0.1 µM | < 10 µM | < 10 µM | < 10 µM | < 10 µM | < 10 µM | < 10 µM | < 10 µM | < 10 µM | < 10 µM | < 10 µM | inhibited the ATPase activity of Eg5 in a concentration-dependent manner | < 0.1 µM | – |
| CN(C)CCS(=O)(=O)NCC1(c2ccccc2)SC(NC(=O)C(C)(C)C)=NN1C(=O)C(C)(C)C (single isomer, unassigned; (-)) [Compound m, (−)-N-[5-(2-Dimethylaminoethanesulfonylaminomethyl)-4-(2,2-dimethyl-propionyl)-5-phenyl-4,5-dihydro-1,3,4-thiadiazol-2-yl]-2,2-dimethylpropanamide] | < 0.1 µM | < 10 µM | < 10 µM | < 10 µM | < 10 µM | < 10 µM | < 10 µM | < 10 µM | < 10 µM | < 10 µM | < 10 µM | – | – | 101 to 104 °C |
| CC(C)C(=O)N1N=C(NC(=O)C(C)(C)C)SC1(CCNS(C)(=O)=O)c1ccccc1 (single isomer, unassigned; (-)) [Compound d, (−)-N-[4-Isobutyryl-5-(2-methanesulfonylaminoethyl)-5-phenyl-4,5-dihydro-1,3,4-thiadiazol-2-yl]-2,2-dimethylpropanamide] | < 0.1 µM | < 10 µM | < 10 µM | < 10 µM | < 10 µM | < 10 µM | < 10 µM | < 10 µM | < 10 µM | < 10 µM | < 10 µM | inhibited the ATPase activity of Eg5 in a concentration-dependent manner | < 0.1 µM | – |
